Converted amounts (≈) assume the structure as drawn. Read-outs that look alike come from different tables or passages of the source.
Key:
[1] = system: vancomycin resistant enterococci (VRE); experiment: Broth microdilution MIC50/MIC90, VRE panel; format: cell-based; settings: Enterococcus, 10 VRE strains; for MIC90: VRE, read-out: MIC 90; for MIC50: read-out: MIC 50
[2] = system: Bacillus anthracis; experiment: microbe, parasite or virus in culture; format: cell-based
[3] = system: B. cereus; experiment: Broth microdilution MIC/MBC, B. cereus; format: cell-based; settings: Bacillus cereus; for MBC: read-out: MBC; for MIC: read-out: MIC
Description: The broth microdilution technique was used, followed by subculturing on agar plates that were rhodanine—free.

[4] = system: Bacillus Strains; experiment: Broth microdilution MIC50/MIC90 and MIC range, Bacillus strains panel; format: cell-based, Bacillus spp.; settings: 10 Bacillus strains
Description: The broth microdilution technique was used, followed by subculturing on agar plates that were rhodanine—free. […] The MICs reported represent the lowest concentration of each compound necessary to inhibit bacterial growth and the MBCs represent the lowest concentration required to reduce the initial bacterial inoculum by ≥ 99.9%.

[5] = system: Mycobacterium smegmatis; experiment: Broth microdilution MIC/MBC, Mycobacterium smegmatis; format: cell-based; settings: Mycolicibacterium smegmatis, ATCC14468, M. Smegmatis ATCC 14468; for MBC: read-out: MBC; for MIC: read-out: MIC
[6] = system: Acinetobacter baumannii; experiment: Broth microdilution MIC, Acinetobacter baumannii; format: cell-based
[7] = system: Candida albicans; experiment: MIC against Candida albicans; format: cell-based; settings: table prints none, read-out: MIC
[8] = system: MRSA USA300; experiment: MIC against MRSA USA300 with and without 4% human serum albumin; format: cell-based, Staphylococcus aureus; settings: Staphylococcus aureus, read-out: MIC against MRSA USA300
Method in brief: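 MIC measured in tryptic soy broth spiked with 4% HSA and without it, using CLSI broth microdilution on MRSA USA300. Value reported is the lowest concentration preventing bacterial growth.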

[9] = system: Acinetobacter baumannii; experiment: MIC with/without sub-MIC colistin, Acinetobacter baumannii; format: cell-based
Method in brief: (§1)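 Sub-MIC colistin or PMBN added to broth MIC tests of rhodanines and reference antibiotics against Gram-negative strains; AcrAB efflux-deficient E. coli SM1411ΔacrAB also tested.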

[10] = system: Escherichia coli O157:H7; experiment: MIC with/without sub-MIC colistin, Escherichia coli O157:H7; format: cell-based
Method in brief: as §1

[11] = system: Salmonella Typhimurium; experiment: MIC with/without sub-MIC colistin, Salmonella Typhimurium; format: cell-based
Method in brief: as §1

[12] = system: Escherichia coli O157:H7; experiment: MIC with/without PMBN, Escherichia coli O157:H7; format: cell-based
Method in brief: as §1

[13] = system: Klebsiella pneumoniae; experiment: MIC with/without PMBN, Klebsiella pneumoniae; format: cell-based
Method in brief: as §1

[14] = system: Escherichia coli Δ acrAB; experiment: MIC against E. coli 1411 and AcrAB efflux pump deficient E. coli SM1411Δ acrAB; format: cell-based
Method in brief: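 Gram-negative MICs were determined for rhodanines alongside control antibiotics, each combined with sub-inhibitory colistin or PMBN. Further testing used the efflux-deficient E. coli SM1411ΔacrAB, missing the AcrAB multidrug pump.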

[15] = NRS201, B. cereus NRS 201 NR-2488
[16] = ATCC10231, C. albicans ATCC 10231, unit from abstract
[17] = C. albicans NR 29434, unit from abstract
[18] = C. albicans NR 29435, unit from abstract
[19] = C. albicans NR29437, unit from abstract
[20] = C. albicans NR29438, unit from abstract
[21] = C. albicans NR 29446, unit from abstract
[22] = C. albicans NR 29448, unit from abstract
[23] = C. albicans NR 29449, unit from abstract
[24] = C. albicans NR 29453, unit from abstract
[25] = C. albicans NR 294436, unit from abstract
[26] = Acinetobacter baumannii ATCC BAA747, colistin (+) […], read-out: MIC
[27] = Acinetobacter baumannii ATCC BAA19606, colistin (+) […], read-out: MIC
[28] = Acinetobacter baumannii, ATCCBAA747
[29] = Acinetobacter baumannii, ATCCBAA19606
[30] = Escherichia coli O157:H7 ATCC 35150, colistin (+) […], read-out: MIC
[31] = Escherichia coli O157:H7 ATCC 700728, colistin (+) […], read-out: MIC
[32] = Salmonella Typhimurium ATCC 700720, colistin (+) […], read-out: MIC
[33] = Salmonella enterica, ATCC 700720 / TYPHIMURIUM
[34] = Escherichia coli O157:H7 ATCC 35150, PMBN (+) 4 μg/mL, read-out: MIC
[35] = Escherichia coli O157:H7 ATCC 700728, PMBN (+) 4 μg/mL, read-out: MIC
[36] = Klebsiella pneumoniae ATCC BAA 1706, PMBN (+) 4 μg/mL
[37] = Klebsiella pneumoniae ATCC BAA 2146, PMBN (+) 4 μg/mL
[38] = E.coli 1411 SM (Δ acrAB, AcrAB efflux pump deficient)

## O=C(O)[C@@H](Cc1ccccc1)N1C(=O)/C(=C/c2cccc(Oc3ccc(F)cc3)c2)SC1=S [Rh 4]
[1]
  MIC90: 32 µM (≈ 15.3 µg/mL)
  MIC50: 32 µM (≈ 15.3 µg/mL)
[2]; Bacillus anthracis AMES35
  MBC: 4 µM (≈ 1.92 µg/mL)
  MIC: 4 µM (≈ 1.92 µg/mL)
[2]; Bacillus anthracis UM23
  MBC: 4 µM (≈ 1.92 µg/mL)
  MIC: 4 µM (≈ 1.92 µg/mL)
[2]; Bacillus anthracis Weybridge
  MBC: 4 µM (≈ 1.92 µg/mL)
  MIC: 4 µM (≈ 1.92 µg/mL)
[3]; B. cereus BAG1O-2 NR-28582
  MBC: 8 µM (≈ 3.84 µg/mL)
  MIC: 8 µM (≈ 3.84 µg/mL)
[3]; B. cereus BAG1X1-1 NR-28575
  MBC: 8 µM (≈ 3.84 µg/mL)
  MIC: 8 µM (≈ 3.84 µg/mL)
[3]; B. cereus BAG1X2-1 NR-28578
  MBC: 8 µM (≈ 3.84 µg/mL)
  MIC: 8 µM (≈ 3.84 µg/mL)
[3]; B. cereus G9241 NR-9564
  MBC: 16 µM (≈ 7.67 µg/mL)
  MIC: 16 µM (≈ 7.67 µg/mL)
[3]; B. cereus VD014 NR-22141
  MBC: 8 µM (≈ 3.84 µg/mL)
  MIC: 8 µM (≈ 3.84 µg/mL)
[3]; B. cereus VD115 NR-22148
  MBC: 8 µM (≈ 3.84 µg/mL)
  MIC: 8 µM (≈ 3.84 µg/mL)
[3]; B. cereus VD148 NR-22150
  MBC: 8 µM (≈ 3.84 µg/mL)
  MIC: 8 µM (≈ 3.84 µg/mL)
[3]; [15]
  MBC: > 64 µM
  MIC: 8 µM (≈ 3.84 µg/mL)
[4]
  MIC50: 8 µM (≈ 3.84 µg/mL)
  MIC90: 16 µM (≈ 7.67 µg/mL)
[5]
  MBC: > 64 µM
  MIC: 32 µM (≈ 15.3 µg/mL)
[6]; ATCC13345
  MIC: > 128 µM
[6]; ATCC17786
  MIC: > 128 µM
[7]; [16]
  MIC: > 64 µM
[7]; [17]
  MIC: > 64 µM
[7]; [18]
  MIC: > 64 µM
[7]; [19]
  MIC: > 64 µM
[7]; [20]
  MIC: > 64 µM
[7]; [21]
  MIC: 64 µM (≈ 30.7 µg/mL)
[7]; [22]
  MIC: > 64 µM
[7]; [23]
  MIC: > 64 µM
[7]; [24]
  MIC: > 64 µM
[7]; [25]
  MIC: > 64 µM
[8]; 24 h, Media TSB + 4% HSA
  MIC: > 64 µM
[8]; Media TSB
  MIC: 16 µM (≈ 7.67 µg/mL)
[9]; [26]
  MIC: >64 µM
[9]; [27]
  MIC: >64 µM
[9]; [28]
  MIC: > 128 µM
[9]; [29]
  MIC: > 128 µM
[10]; [30]
  MIC: >64 µM
[10]; [31]
  MIC: >64 µM
[10]; Escherichia coli, ATCC35150
  MIC: > 128 µM
[10]; Escherichia coli, ATCC700728
  MIC: > 128 µM
[11]; [32]
  MIC: >64 µM
[11]; [33]
  MIC: > 128 µM
[12]; [34]
  MIC: 8 µM (≈ 3.84 µg/mL)
[12]; [35]
  MIC: >64 µM
[12]; Escherichia coli, ATCC35150
  MIC: > 256 µM
[12]; Escherichia coli, ATCC700728
  MIC: > 128 µM
[13]; [36]
  MIC: >64 µM
[13]; [37]
  MIC: >64 µM
[13]; Klebsiella pneumoniae, BAA1706
  MIC: > 128 µM
[13]; Klebsiella pneumoniae, BAA2146
  MIC: > 128 µM
[14]; E.coli 1411
  MIC: > 64 µM
[14]; [38]
  MIC: > 64 µM

## O=C(O)[C@H](Cc1ccccc1)N1C(=O)/C(=C/c2cccc(-c3ccccc3)c2)SC1=S [Rh 5]
[1]
  MIC90: 16 µM (≈ 7.13 µg/mL)
  MIC50: 16 µM (≈ 7.13 µg/mL)
[2]; Bacillus anthracis AMES35
  MBC: 2 µM (≈ 0.891 µg/mL)
  MIC: 2 µM (≈ 0.891 µg/mL)
[2]; Bacillus anthracis UM23
  MBC: 2 µM (≈ 0.891 µg/mL)
  MIC: 2 µM (≈ 0.891 µg/mL)
[2]; Bacillus anthracis Weybridge
  MBC: 4 µM (≈ 1.78 µg/mL)
  MIC: 2 µM (≈ 0.891 µg/mL)
[3]; B. cereus BAG1O-2 NR-28582
  MBC: 4 µM (≈ 1.78 µg/mL)
  MIC: 4 µM (≈ 1.78 µg/mL)
[3]; B. cereus BAG1X1-1 NR-28575
  MBC: 4 µM (≈ 1.78 µg/mL)
  MIC: 4 µM (≈ 1.78 µg/mL)
[3]; B. cereus BAG1X2-1 NR-28578
  MBC: 4 µM (≈ 1.78 µg/mL)
  MIC: 4 µM (≈ 1.78 µg/mL)
[3]; B. cereus G9241 NR-9564
  MBC: 8 µM (≈ 3.56 µg/mL)
  MIC: 8 µM (≈ 3.56 µg/mL)
[3]; B. cereus VD014 NR-22141
  MBC: 8 µM (≈ 3.56 µg/mL)
  MIC: 4 µM (≈ 1.78 µg/mL)
[3]; B. cereus VD115 NR-22148
  MBC: 4 µM (≈ 1.78 µg/mL)
  MIC: 4 µM (≈ 1.78 µg/mL)
[3]; B. cereus VD148 NR-22150
  MBC: 4 µM (≈ 1.78 µg/mL)
  MIC: 4 µM (≈ 1.78 µg/mL)
[3]; [15]
  MBC: 4 µM (≈ 1.78 µg/mL)
  MIC: 4 µM (≈ 1.78 µg/mL)
[4]
  MIC50: 4 µM (≈ 1.78 µg/mL)
  MIC90: 8 µM (≈ 3.56 µg/mL)
[5]
  MBC: 16 µM (≈ 7.13 µg/mL)
  MIC: 16 µM (≈ 7.13 µg/mL)
[6]; ATCC13345
  MIC: > 128 µM
[6]; ATCC17786
  MIC: > 128 µM
[7]; [16]
  MIC: > 64 µM
[7]; [17]
  MIC: > 64 µM
[7]; [18]
  MIC: > 64 µM
[7]; [19]
  MIC: > 64 µM
[7]; [20]
  MIC: > 64 µM
[7]; [21]
  MIC: > 64 µM
[7]; [22]
  MIC: > 64 µM
[7]; [23]
  MIC: > 64 µM
[7]; [24]
  MIC: > 64 µM
[7]; [25]
  MIC: > 64 µM
[8]; 24 h, Media TSB + 4% HSA
  MIC: > 64 µM
[8]; Media TSB
  MIC: 16 µM (≈ 7.13 µg/mL)
[9]; [26]
  MIC: >64 µM
[9]; [27]
  MIC: >64 µM
[9]; [28]
  MIC: > 128 µM
[9]; [29]
  MIC: > 128 µM
[10]; [30]
  MIC: >64 µM
[10]; [31]
  MIC: >64 µM
[10]; Escherichia coli, ATCC35150
  MIC: > 128 µM
[10]; Escherichia coli, ATCC700728
  MIC: > 128 µM
[11]; [32]
  MIC: >64 µM
[11]; [33]
  MIC: > 128 µM
[12]; [34]
  MIC: 8 µM (≈ 3.56 µg/mL)
[12]; [35]
  MIC: >64 µM
[12]; Escherichia coli, ATCC35150
  MIC: > 256 µM
[12]; Escherichia coli, ATCC700728
  MIC: > 128 µM
[13]; [36]
  MIC: >64 µM
[13]; [37]
  MIC: >64 µM
[13]; Klebsiella pneumoniae, BAA1706
  MIC: > 128 µM
[13]; Klebsiella pneumoniae, BAA2146
  MIC: > 128 µM
[14]; E.coli 1411
  MIC: > 64 µM
[14]; [38]
  MIC: > 64 µM
